Laboratory results taken from patent publication US7659404B2, “Broad spectrum 2-(substituted-amino)-benzothiazole sulfonamide HIV protease inhibitors” (Tibotec Pharmaceuticals Ltd., priority 2001, dated 2010).
Read-outs that look alike come from different tables or passages of the source.

Assays:
[1] = system: clinically isolated HIV strain J; format: cell-based; conditions: FR=EC50(mutant strain)/EC50(HIV-1 strain LAI)
Experimental: (§1) HIV- or mock-infected MT4 cells were incubated for five days in the presence of various concentrations of the inhibitor. […] Cell viability is measured by measuring the concentration of MTT, a yellow, water soluble tetrazolium dye that is converted to a purple, water insoluble formazan in the mitochondria of living cells only. Upon solubilization of the resulting formazan crystals with isopropanol, the absorbance of the solution is monitored at 540 nm. The values correlate directly to the number of living cells remaining in the culture at the completion of the five day incubation. The inhibitory activity of the compound was monitored on the virus-infected cells and was expressed as EC50 and EC90. These values represent the amount of the compound required to protect 50% and 90%, respectively, of the cells from the cytopathogenic effect of the virus. The toxicity of the compound was measured on the mock-infected cells and was expressed as CC50, which represents the concentration of compound required to inhibit the growth of the cells by 50%. The selectivity index (SI) (ratio CC50/EC50) is an indication of the selectivity of the anti-HIV activity of the inhibitor.
(§2) Because of the increasing emergence of drug resistant HIV strains, the present compounds were tested for their potency against clinically isolated HIV strains harboring several mutations.
(§3) As a measure of the broad spectrum activity of the present compounds, the fold resistance (FR) defined as FR=EC50(mutant strain)/EC50(HIV-1 strain LAI).

[2] = system: clinically isolated HIV strain T; format: cell-based; conditions: FR=EC50(mutant strain)/EC50(HIV-1 strain LAI)
Experimental: as §1, §2, §3

[3] = system: clinically isolated HIV strain O; format: cell-based; conditions: FR=EC50(mutant strain)/EC50(HIV-1 strain LAI)
Experimental: as §1, §2, §3

[4] = system: clinically isolated HIV strain H; format: cell-based; conditions: FR=EC50(mutant strain)/EC50(HIV-1 strain LAI)
Experimental: as §1, §2, §3

[5] = system: clinically isolated HIV strain I; format: cell-based; conditions: FR=EC50(mutant strain)/EC50(HIV-1 strain LAI)
Experimental: as §1, §2, §3

virus strain F (R13025) = test: microbe, parasite or virus in culture; format: cell-based, HIV; conditions: for fold resistance (FR), strain F: FR=EC50(mutant strain)/EC50(HIV-1 strain LAI); for EC50: Human immunodeficiency virus 1, MT4, read-out: HIV-AVE-MT4-MTT-R13025-2-002 pEC50, virus strain F (R13025), MT4 cells, MTT (converted)
Method in brief: (§4)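 First, MT4 cells were infected with HIV (or mock-infected) and incubated five days with varying inhibitor concentrations. Next, living cells were quantified via MTT reduction, measuring absorbance at 540 nm. Finally, EC50 was derived and fold resistance calculated relative to HIV-1 strain LAI.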

virus strain S (R13080) = test: microbe, parasite or virus in culture; format: cell-based, HIV; conditions: for fold resistance (FR), strain S: FR=EC50(mutant strain)/EC50(HIV-1 strain LAI); for EC50: Human immunodeficiency virus 1, MT4, read-out: HIV-AVE-MT4-MTT-R13080-2-002 pEC50, virus strain S (R13080), MT4 cells, MTT (converted)
Method in brief: as §4

wild type virus (IIIB) = test: HIV-AVE-MT4-MTT cellular assay, wild type virus (IIIB); format: cell-based; conditions: Human immunodeficiency virus 1, IIIB
Method in brief: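 MT4 cells, HIV- or mock-infected, exposed to inhibitor dilutions for five days. Viability read by MTT reduction to formazan, absorbance at 540 nm. EC50/EC90 give protection from viral cytopathic effect; CC50 comes from mock-infected cells.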

[6] = MT4, wild type virus (IIIB), MT4 cells, MTT, read-out: HIV-AVE-MT4-MTT-IIIB-2-002 pEC50 (converted)

Row | Structure (SMILES) | fold resistance (FR), strain J [1] | fold resistance (FR), strain T [2] | fold resistance (FR), strain O [3] | fold resistance (FR), strain H [4] | fold resistance (FR), strain I [5] | fold resistance (FR), strain F (virus strain F (R13025)) | fold resistance (FR), strain S (virus strain S (R13080)) | EC50 (virus strain F (R13025)) | HIV-AVE-MT4-MTT-R13080-2-002 pEC50 (virus strain S (R13080); virus strain S (R13080), MT4 cells, MTT) | EC50 (wild type virus (IIIB); [6]) | EC50 (virus strain S (R13080)) | EC50 (wild type virus (IIIB); MT4, read-out: HIV-AVE-MT4-MTT-IIIB-2-002 pEC50 (converted))
1 | COC(=O)CNc1nc2ccc(S(=O)(=O)N(CC(C)C)CC(O)C(Cc3ccccc3)NC(=O)OC3COC4OCCC34)cc2s1 (mixture of isomers) [Compound 6] | 5.6 | 104.3 | 4.7 | 7.7 | 5.3 | 24.0 | 30.7 | – | – | – | – | –
2 | Cc1cccc(C)c1OCC(=O)N[C@@H](Cc1ccccc1)[C@H](O)CN(CC(C)C)S(=O)(=O)c1ccc2nc(NCCN3CCNCC3)sc2c1 [Compound 59] | 1.7 | 22.2 | 2.0 | 1.2 | 1.2 | 2.3 | 4.7 | – | – | – | – | –
3 | CC(C)CN(C[C@@H](O)[C@H](Cc1ccccc1)NC(=O)OCc1cncs1)S(=O)(=O)c1ccc2nc(NCCCN(C)C)sc2c1 [Compound 51] | 0.9 | 51.8 | 0.6 | 1.8 | 2.6 | 2.9 | 2.1 | – | – | – | – | –
4 | CC(C)CN(C[C@@H](O)[C@H](Cc1ccccc1)NC(=O)O[C@H]1CO[C@H]2OCC[C@H]21)S(=O)(=O)c1ccc2nc(NCCCN(C)C)sc2c1 [Compound 22] | 0.4 | 6.0 | 0.4 | 0.4 | 0.6 | 0.3 | 1.4 | – | – | – | – | –
5 | CC(C)CN(C[C@@H](O)[C@H](Cc1ccccc1)NC(=O)OCc1cccnc1)S(=O)(=O)c1ccc2nc(NCCN3CCCC3)sc2c1 [Compound 41] | 5.6 | 252.5 | 2.0 | 2.3 | 2.5 | 44.4 | 37.6 | – | – | – | – | –
6 | CC(=O)N(C)c1nc2ccc(S(=O)(=O)N(CC(C)C)C[C@@H](O)[C@H](Cc3ccccc3)NC(=O)OCc3cncs3)cc2s1 [Compound 80] | 17.6 | 457.6 | 8.1 | 5.7 | 3.9 | 17.4 | 26.6 | – | – | – | – | –
7 | Cc1c(N)cccc1C(=O)N[C@@H](Cc1ccccc1)[C@H](O)CN(CC(C)C)S(=O)(=O)c1ccc2nc(NCCN3CCNCC3)sc2c1 [Compound 60] | 0.6 | 4.1 | 1.1 | 1.3 | 1.3 | 1.2 | 1.4 | – | – | – | – | –
8 | CC(C)CN(C[C@@H](O)[C@H](Cc1ccccc1)NC(=O)O[C@H]1CCOC1)S(=O)(=O)c1ccc2nc(NCCN3CCCC3)sc2c1.O=C(O)C(F)(F)F [Compound 68] | 3.9 | 775.2 | 3.5 | 7.3 | 2.4 | 65.2 | 180.7 | – | – | – | – | –
9 | CC(C)CN(C[C@@H](O)[C@H](Cc1ccccc1)NC(=O)OCc1cccnc1)S(=O)(=O)c1ccc2nc(NCCCN(C)C)sc2c1 [Compound 52] | 2.7 | 124.5 | 1.6 | 1.8 | 1.3 | 10.2 | 20.3 | – | – | – | – | –
10 | CC(=O)N(C)c1nc2ccc(S(=O)(=O)N(CC(C)C)C[C@@H](O)[C@H](Cc3ccccc3)NC(=O)O[C@H]3CCOC3)cc2s1 [Compound 79] | 9.8 | 893.1 | 7.4 | 12.1 | 3.9 | 113.0 | 313.0 | – | – | – | – | –
11 | Cc1c(N)cccc1C(=O)N[C@@H](Cc1ccccc1)[C@H](O)CN(CC(C)C)S(=O)(=O)c1ccc2nc(NC(=O)CN3CCN(C)CC3)sc2c1.O=C(O)C(F)(F)F [Compound 66] | 1.2 | 87.9 | 1.0 | 0.9 | 1.0 | 4.0 | 5.6 | – | – | – | – | –
12 | Cc1c(N)cccc1C(=O)N[C@@H](Cc1ccccc1)[C@H](O)CN(CC(C)C)S(=O)(=O)c1ccc2nc(NCCCN(C)C)sc2c1 [Compound 54] | 0.4 | 1.4 | 0.4 | 0.6 | 0.9 | 3.6 | 1.8 | – | – | – | – | –
13 | Cc1cc(C#N)cc(C)c1OCC(=O)N[C@@H](Cc1ccccc1)[C@H](O)CN(CC(C)C)S(=O)(=O)c1ccc2nc(NC(=O)CN3CCCC3)sc2c1 [Compound 75] | 19.4 | 93.6 | 18.7 | 3.6 | 7.4 | 16.3 | 19.0 | – | – | – | – | –
14 | CC(=O)N(C)c1nc2ccc(S(=O)(=O)N(CC(C)C)C[C@@H](O)[C@H](Cc3ccccc3)NC(=O)c3cccc(O)c3C)cc2s1 [Compound 83] | 8.4 | 438.6 | 1.5 | 4.6 | 7.4 | 106.6 | 132.1 | – | – | – | – | –
15 | Cc1cc(Br)ccc1C(=O)N[C@@H](Cc1ccccc1)[C@H](O)CN(CC(C)C)S(=O)(=O)c1ccc2nc(NC(=O)CN3CCCC3)sc2c1 [Compound 70] | 3.3 | 145.1 | 3.2 | 3.1 | 3.7 | 4.7 | 10.4 | – | – | – | – | –
16 | CC(C)CN(C[C@@H](O)[C@H](Cc1ccccc1)NC(=O)OCc1cncs1)S(=O)(=O)c1ccc2nc(NC(=O)CN3CCNCC3)sc2c1 [Compound 155] | – | – | – | – | – | – | – | 24.5 nM | 7.49 | 42.7 nM | – | –
17 | Cc1cccc(C)c1OCC(=O)N[C@@H](Cc1ccccc1)[C@H](O)CN(CC(C)C)S(=O)(=O)c1ccc2nc(N3CCCC3C(=O)O)sc2c1 (stereo partly drawn) [Compound 139] | – | – | – | – | – | – | – | 3090 nM | – | 2090 nM | 10000 nM | –
18 | CC(C)CN(C[C@@H](O)[C@H](Cc1ccccc1)NC(=O)OCc1cncs1)S(=O)(=O)c1ccc2nc(C(C)C(=O)CCCC(=O)O)sc2c1 (stereo partly drawn) [Compound 160] | – | – | – | – | – | – | – | 479 nM | – | 51.3 nM | 2450 nM | –
19 | CC(C)CN(C[C@@H](O)[C@H](Cc1ccccc1)NC(=O)O[C@H]1CO[C@H]2OCC[C@H]21)S(=O)(=O)c1ccc2nc(NCCN3CCCC3)sc2c1 [Compound 184] | – | – | – | – | – | – | – | 4.47 nM | – | – | 26.9 nM | 17.4 nM
20 | CCN1CCCC1CNc1nc2ccc(S(=O)(=O)N(CC(C)C)C[C@@H](O)[C@H](Cc3ccccc3)NC(=O)O[C@H]3CO[C@H]4OCC[C@H]43)cc2s1 (stereo partly drawn) [Compound 186] | – | – | – | – | – | – | – | 6.61 nM | – | 6.17 nM | 28.8 nM | –
